Read-outs that look alike come from different tables or passages of the source.
Tests used:
[1] = Gastric lesions and toxicity in rodents; settings: in vivo
Description: This may be related to the absence of use of toxic ingredients such as sodium azide or potassium azide.

[2] = Bioavailability of CTO given orally as solid in capsule or as liquid in PEG-400; CAI in plasma by HPLC/MS; assay type: in vivo, dogs; settings: for Cmax / half-life: po; for Cmax: 685 mg/kg; for concentration at 1 h: measured as CAI, read-out: Plasma concentration after 1 hr
Description: The bioavailability of CTO (base:acid, 0.7:1.3) was determined by administering a single dose 685 mg/kg by capsule (Group 1) or by oral gavage in PEG400 (Group 2). Two dogs (1F/1M) were used in each group. Blood samples were collected at 0, 1, 2, 4, 8, 12, 24, 48, 72, and 92 hours. CAI was measured by HPLC/MS.

[3] = system: HT29 human colon tumor xenografts; assay: Anticancer activity in s.c.-implanted HT29 human colon tumor xenografts; assay type: in vivo, mice; settings: CTO 343 mg/kg/day, days 13-26; measured at 41 days; control 1436 mm^3; p=0.0050 vs control
Description: The effect of CTO M.W. of 580.8 and CAI M.W. of 424.6+Orotic Acid M.W. of 156.1, was studied in s.c.-implanted HT29 human colon tumor xenografts in male, athymic NCr-n u/nu mice. 6 week old mice were implanted with HT29 fragments and 13 days later were sorted in […] groups of ten. For the next 14 days (13-26 days), Group 1 control (C) received the vehicle; Group 2=343 mg/kg/dose; Group 3=240 mg/kg/day CAI+103 mg/kg/day orotic acid. At 41 days, the mean tumor volume (mm^3) was measured as shown below: • Group 1 (Control)=1436 mm^3 • Group 2 (CTO343 mg/kg/day)=864 mm^3 (p=0.0050, Gr2 vs Gr 1) • Group 3 (CAI […]+Orotic Acid 103 mg/kg/day)=1268 mm^3 (p=0.2706,Gr 3 vs Gr 1). […] However, CAI+Orotic acid formulation did show some tumor inhibition.

[4] = assay type: in vivo; settings: dogs, PO, 175, 350, 1025 mg/kg/day, after 28 days
[5] = CTO concentration (as CAI) in brain tissue after oral dosing; assay type: in vivo, mice; settings: mouse, eight hours after treatment, read-out: CAI levels in brain tissue
Description: CTO was given orally (in PEG400) to six week old mice sorted in two Groups of 6. Two doses were administered-Group 1=513 mg/kg; Group 2=342 mg/kg. Eight hours after treatment with CTO, the mice were euthanized for measurement of CTO concentration (as CAI) in brain tissue.

[6] = system: Dunning R-3227-AT-1 prostate cancer model; settings: rats; compared with equivalent dose of L651582; U.S. Pat. No. 5,912,346; cited from earlier work

## NC(=O)c1nnn(Cc2cc(Cl)c(C(=O)c3ccc(Cl)cc3)c(Cl)c2)c1N [CAI, 5-Amino-1-(4-(4-chlorobenzoyl)-3,5-dichlorobenzyl)-1,2,3-triazole-4-carboxamide]
[1]
  gastric lesions and toxicity: less gastric lesions and toxicity

## NC(=O)c1nnn(Cc2cc(Cl)c(C(=O)c3ccc(Cl)cc3)c(Cl)c2)c1N [CTO, 5-Amino-1-(4-(4-chlorobenzoyl)-3,5-dichlorobenzyl)-1,2,3-triazole-4-carboxamide, compound with orotic acid]
[2]; both sexes, dog, plasma, oral gavage in PEG400, single dose 685 mg/kg, dogs, read-out: Bioavailability relative to Group 1 (capsule, 100%)
  bioavailability: 81.8%
[2]; capsule, single dose 685 mg/kg, female dog
  AUC: 277 µg/mL
[2]; capsule, single dose 685 mg/kg, male dog
  AUC: 326 µg/mL
[2]; female, dog, plasma, capsule, single dose 685 mg/kg, female dog
  Cmax: 7950 ng/mL
[2]; female, dog, plasma, oral gavage in PEG400, single dose 685 mg/kg, female dog
  Cmax: 5350 ng/mL
[2]; male, dog, plasma, capsule, single dose 685 mg/kg, male dog
  Cmax: 5800 ng/mL
[2]; male, dog, plasma, oral gavage in PEG400, single dose 685 mg/kg, male dog
  Cmax: 6630 ng/mL
[2]; plasma, oral, capsule, single dose 685 mg/kg, female dog
  concentration at 1 h: 174 ng/mL
[2]; plasma, oral, capsule, single dose 685 mg/kg, male dog
  concentration at 1 h: 155 ng/mL
[2]; plasma, capsule, single dose 685 mg/kg, female dog
  half-life: 22.7 h
[2]; plasma, capsule, single dose 685 mg/kg, male dog
  half-life: 18 h
[2]; plasma, oral gavage in PEG400, single dose 685 mg/kg, female dog
  concentration at 1 h: 570 ng/mL
[2]; plasma, oral gavage in PEG400, single dose 685 mg/kg, male dog
  concentration at 1 h: 511 ng/mL
[3]
  mean tumor volume: 864 mm^3
[4]
  deaths: no deaths occurred
[5]; CTO 342 mg/kg orally in PEG400, mice
  concentration at 8 h: 11000 ± 1700 ng/g
[5]; CTO 513 mg/kg orally in PEG400, mice
  concentration at 8 h: 15200 ± 2370 ng/g

## NC(=O)c1nnn(Cc2cc(Cl)c(C(=O)c3ccc(Cl)cc3)c(Cl)c2)c1N.O=C(O)c1cc(=O)[nH]c(=O)[nH]1 [L651582 Orotate]
[6]
  antitumor activity: improved antitumor activity

From patent US8912223B2, “Compositions and processes for preparing 5-amino or substituted amino 1,2,3-triazoles and triazoles orotate formulations” (priority 2013, dated 2014)
